Assay results from US12570659B2, “Bicyclic heteroaryl compounds useful as IRAK4 inhibitors” (BRISTOL-MYERS SQUIBB COMPANY, priority 2019, dated 2026).

Legend:
[1] = molecular target: JAK3 kinase (Homo sapiens (Human), UniProt P52333); experiment: JAK3 Homogeneous Time Resolved Fluorescence (HTRF) Assay; assay type: binding; settings: for IC50: competition binding with fluorescein-labeled ATP competitive probe; for Ratio of JAK3 IC50 to IRAK4 IC50: selectivity for IRAK4 over JAK3
Outline: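 TR-FRET competition binding: 1 nM His- or GST-tagged JAK3 with 0.2 nM Tb-labeled anti-tag antibody, fluorescein ATP-competitive probe at its Kd, and compound for one hour. FRET read at 495/520 nm, normalized to no-compound signal. IC50 from 11 concentrations, 4-parameter logistic fit.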

[2] = molecular target: IRAK4 (Homo sapiens (Human), UniProt Q9NWZ3); experiment: IRAK4 Inhibition Assay; assay type: biochemical; settings: ATP 500 μM; IRAK4 0.6 nM; 60 min room temperature
IRAK4, sequence (Q9NWZ3 whole entry, species assumed): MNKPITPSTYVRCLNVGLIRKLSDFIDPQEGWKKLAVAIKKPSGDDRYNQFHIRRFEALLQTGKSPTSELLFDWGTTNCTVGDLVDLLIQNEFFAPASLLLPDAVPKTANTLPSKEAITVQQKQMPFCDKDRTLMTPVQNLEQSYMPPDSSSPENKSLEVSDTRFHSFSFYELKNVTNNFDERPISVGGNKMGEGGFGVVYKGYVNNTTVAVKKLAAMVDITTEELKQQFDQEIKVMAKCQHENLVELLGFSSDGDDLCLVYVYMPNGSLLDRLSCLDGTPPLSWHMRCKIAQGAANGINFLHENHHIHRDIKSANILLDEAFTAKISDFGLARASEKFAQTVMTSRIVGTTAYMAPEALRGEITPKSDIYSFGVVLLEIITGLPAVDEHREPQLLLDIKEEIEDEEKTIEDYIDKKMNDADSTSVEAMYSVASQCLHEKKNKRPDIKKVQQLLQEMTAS
Outline: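 Reaction started by combining IRAK4 with substrates and compound, run 60 min at room temperature and stopped with 35 mM EDTA. Fluorescent substrate and phosphorylated product were separated electrophoretically on a Caliper LabChip; inhibition normalized to no-enzyme (100%) and vehicle-only (0%) controls.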

JAK3 kinase, sequence (P52333 whole entry): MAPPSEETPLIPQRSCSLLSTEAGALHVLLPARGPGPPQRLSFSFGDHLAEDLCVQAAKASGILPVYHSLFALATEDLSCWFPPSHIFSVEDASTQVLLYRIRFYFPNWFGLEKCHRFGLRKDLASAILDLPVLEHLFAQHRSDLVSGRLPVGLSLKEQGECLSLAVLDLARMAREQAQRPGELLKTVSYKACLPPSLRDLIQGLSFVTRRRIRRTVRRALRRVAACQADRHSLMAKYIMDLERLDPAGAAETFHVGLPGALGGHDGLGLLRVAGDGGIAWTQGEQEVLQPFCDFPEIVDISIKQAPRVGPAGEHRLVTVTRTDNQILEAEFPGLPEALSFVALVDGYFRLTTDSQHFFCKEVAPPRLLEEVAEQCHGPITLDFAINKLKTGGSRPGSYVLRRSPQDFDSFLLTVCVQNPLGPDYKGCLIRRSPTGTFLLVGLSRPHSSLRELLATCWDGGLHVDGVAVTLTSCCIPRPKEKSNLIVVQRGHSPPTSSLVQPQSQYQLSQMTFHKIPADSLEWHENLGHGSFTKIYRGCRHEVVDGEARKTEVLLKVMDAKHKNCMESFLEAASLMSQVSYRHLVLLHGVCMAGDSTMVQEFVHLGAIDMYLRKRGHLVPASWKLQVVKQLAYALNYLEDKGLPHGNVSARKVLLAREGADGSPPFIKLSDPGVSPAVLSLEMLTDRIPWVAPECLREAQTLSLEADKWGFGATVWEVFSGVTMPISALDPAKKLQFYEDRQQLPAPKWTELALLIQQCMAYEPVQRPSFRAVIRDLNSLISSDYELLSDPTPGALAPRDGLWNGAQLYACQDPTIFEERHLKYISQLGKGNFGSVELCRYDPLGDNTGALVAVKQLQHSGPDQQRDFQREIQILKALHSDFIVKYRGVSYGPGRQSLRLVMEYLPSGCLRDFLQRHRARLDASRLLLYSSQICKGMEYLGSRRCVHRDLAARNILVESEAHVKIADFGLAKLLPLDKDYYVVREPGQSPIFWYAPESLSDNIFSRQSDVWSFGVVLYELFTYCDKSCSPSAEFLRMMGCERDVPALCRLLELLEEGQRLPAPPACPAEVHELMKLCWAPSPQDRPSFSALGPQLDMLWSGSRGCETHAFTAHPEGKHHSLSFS

SMILES | IC50 [1] [nM] | Ratio of JAK3 IC50 to IRAK4 IC50 [1] | IC50 [2] [nM]
CC(C)Nc1c(C(=O)NC[C@@H](F)C(C)(C)O)cnc2cc(-c3cc[nH]c(=O)c3)nn12 [Example 154, (R)—N-(2-fluoro-3-hydroxy-3-methylbutyl)-7-(isopropylamino)-2-(2-oxo-1,2-dihydropyridin-4-yl)pyrazolo[1,5-a]pyrimidine-6-carboxamide] | > 50000 | >538 | 93
CC(C)Nc1c(C(=O)NC[C@@H](F)C(C)(C)O)cnc2cc(-c3ccncc3)nn12 [Example 122, (R)—N-(2-fluoro-3-hydroxy-3-methylbutyl)-7-(isopropylamino)-2-(pyridin-4-yl)pyrazolo[1,5-a] pyrimidine-6-carboxamide] | > 10000 | >625 | 16
Cc1ncccc1-c1cc2ncc(C(=O)NC[C@@H](F)C(C)(C)O)c(NC(C)C)n2n1 [Example 132, (R)—N-(2-fluoro-3-hydroxy-3-methylbutyl)-7-(isopropylamino)-2-(2-methylpyridin-3-yl)pyrazolo[1,5-a]pyrimidine-6-carboxamide] | > 50000 | >217 | 230
CC(C)Nc1c(C(=O)NC[C@@H](F)C(C)(C)O)cnc2cc(-c3cccc(Cl)n3)nn12 [Example 153, (R)-2-(6-chloropyridin-2-yl)-N-(2-fluoro-3-hydroxy-3-methylbutyl)-7-(isopropylamino) pyrazolo[1,5-a]pyrimidine-6-carboxamide] | > 10000 | >8 | 1230
CC(C)Nc1c(C(=O)NC[C@@H](F)C(C)(C)O)cnc2cc(-c3cccnc3F)nn12 [Example 125, (R)—N-(2-fluoro-3-hydroxy-3-methylbutyl)-2-(2-fluoropyridin-3-yl)-7-(isopropylamino)pyrazolo[1,5-a] pyrimidine-6-carboxamide] | > 10000 | >208 | 48
CC(C)(O)[C@H](F)CNC(=O)c1cnn2cc(-c3ccncc3)cc2c1NC1CCOCC1 [Example 9, (R)—N-(2-fluoro-3-hydroxy-3-methylbutyl)-6-(pyridin-4-yl)-4-((tetrahydro-2H-pyran-4-yl)amino) pyrrolo[1,2-b] pyridazine-3-carboxamide] | > 50000 | >2941 | 17
CC(C)Nc1c(C(=O)NC[C@@H](F)C(C)(C)O)cnn2cc(-c3ccc(F)cc3)nc12 [Example 104, (R)—N-(2-fluoro-3-hydroxy-3-methylbutyl)-2-(4-fluorophenyl)-8-(isopropylamino)imidazo[1,2-b]pyridazine-7-carboxamide] | > 10000 | >256 | 39
CC(C)Nc1c(C(=O)NC[C@@H](F)C(C)(C)O)cnn2cc(-c3ccnc(N4CCOCC4)c3F)cc12 [Example 53, (R)-6-(3-fluoro-2-morpholinopyridin-4-yl)-N-(2-fluoro-3-hydroxy-3-methylbutyl)-4-(isopropylamino)pyrrolo[1,2-b]pyridazine-3-carboxamide] | ~50000 | ~500 | 100
CC(C)Nc1c(C(=O)NC[C@@H](F)C(C)(C)O)cnc2cc(-c3cncc(C#N)c3)nn12 [Example 124, (R)-2-(5-cyanopyridin-3-yl)-N-(2-fluoro-3-hydroxy-3-methylbutyl)-7-(isopropylamino) pyrazolo[1,5-a]pyrimidine-6-carboxamide] | > 50000 | >139 | 360
COc1cc(-c2cc3c(NC4CCOCC4)c(C(=O)NC[C@@H](F)C(C)(C)O)cnn3c2)ccn1 [Example 11, (R)—N-(2-fluoro-3-hydroxy-3-methylbutyl)-6-(2-methoxypyridin-4-yl)-4-((tetrahydro-2H-pyran-4-yl)amino)pyrrolo[1,2-b]pyridazine-3-carboxamide] | > 50000 | >581 | 86
